For `CC(C)n1cc(Nc2nc(-c3ccc4cn[nH]c4c3)cn3ccnc23)cn1` [Compound 5, 6-(1H-indazol-6-yl)-N-(1-isopropyl-1H-pyrazol-4-yl)imidazo[1,2-a]pyrazin-8-amine], the melting point was > 250 °C.

— patent US10093684B2, “Substituted imidazo[1,2-a]pyrazines as Syk inhibitors” (Gilead Connecticut, Inc., priority 2008, dated 2018)
